Laboratory results: PMC12044245 (Emerging Infectious Diseases, 2025)

Tests used:
Format in all cases: biochemical
[1] = biological target: NA (neuraminidase) of A/Yamagata/122/2023 (Influenza A virus, UniProt C3W5S3)
[2] = biological target: NA (neuraminidase) of A/Yamagata/127/2023 (Influenza A virus, UniProt C3W5S3)
[3] = biological target: NA (neuraminidase) of A/Yamagata/135/2023 (Influenza A virus, UniProt C3W5S3)
[4] = biological target: NA (neuraminidase) of A/Yamagata/177/2023 (Influenza A virus, UniProt C3W5S3)
[5] = biological target: NA (neuraminidase) of A/Yamagata/292/2023 (Influenza A virus, UniProt C3W5S3)
[6] = biological target: NA (neuraminidase) of A/Yamagata/312/2023 (Influenza A virus, UniProt C3W5S3)
[7] = biological target: NA (neuraminidase) of A/Yamagata/336/2023 (Influenza A virus, UniProt C3W5S3)
[8] = biological target: NA (neuraminidase) of A/Yamagata/104/2024 (Influenza A virus, UniProt C3W5S3)

Molecule `CCC(CC)[C@H](NC(C)=O)[C@@H]1[C@H](O)[C@@H](C(=O)O)C[C@H]1N=C(N)N` [Peramivir, peramivir] has an IC50 [1] of 80 pM, an IC50 [2] of 80 pM and an IC50 [3] of 80 pM. It also gave an IC50 [4] of 60 pM, an IC50 [5] of 90 pM and an IC50 [6] of 110 pM. For the same molecule, the IC50 [7] was 90 pM and the IC50 [8] was 90 pM.
